US11753403B2, “EIF4E inhibitors and uses thereof” (PIC Therapeutics, Inc., priority 2020, dated 2023)
pIC50: −log10 of the molar value.

Target: Human eIF4E (aa 28-217) / biotin labeled 4G2 peptide (Homo sapiens (Human), UniProt P06730)
Experiment: Human eIF4E/4G2 binding assay (TR-FRET)
Details: Human eIF4E/4G2 TR-FRET binding assay; head says IC50, legend says EC50
In short: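 Refolded His-tagged human eIF4E (aa 28-217), 82.5 nM working stock, preincubated 4 h at RT with compounds (10-point 2-fold series) in NaPi pH 6.5 buffer with DTT and gamma globulin. Biotin-4G2 peptide then added for 20 min, followed by Eu-streptavidin/APC-anti-His for 20 min; TR-FRET 665/615 nm ratio normalized, IC50 fitted.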

Human eIF4E (aa 28-217) / biotin labeled 4G2 peptide, sequence (P06730 28-217): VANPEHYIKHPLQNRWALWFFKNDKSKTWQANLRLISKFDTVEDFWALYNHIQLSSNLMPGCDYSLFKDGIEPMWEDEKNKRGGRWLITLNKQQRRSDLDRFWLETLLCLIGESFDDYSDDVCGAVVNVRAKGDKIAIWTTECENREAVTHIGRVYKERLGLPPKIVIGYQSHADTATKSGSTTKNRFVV

Structure (SMILES)	pIC50
CNC(=O)CCN(Cc1ccccc1)c1nc(-c2ccc(Cl)c(Cl)c2)c(CC(C)C)s1 [I-200, 3-(benzyl(4-(3,4-dichlorophenyl)-5-isobutylthiazol-2-yl)amino)-N-methylpropanamide]	< 5.00
CC(C)Cc1sc(NCc2cccnc2O)nc1-c1ccc(Cl)c(Cl)c1 [I-202]	< 5.00
CSc1sc(NCC(Cc2ccccc2)C(=O)O)nc1-c1ccc(Cl)c(Cl)c1 (centres unmarked) [I-206, 2-benzyl-3-(4-(3,4-dichlorophenyl)-5-(methylthio)thiazol-2-ylamino)propanoic acid]	5.00 to 6.00
COc1ccc(Nc2nc(-c3ccc(Cl)c(Cl)c3)c(CC(C)C)s2)cc1C(=O)O [I-210]	≥ 6.00
CC(C)Cc1sc(Nc2cc(F)cc(C(=O)O)c2)nc1-c1ccc(Cl)c(Cl)c1 [I-212]	≥ 6.00
CC(C)Cc1sc(Nc2cc(C(=O)O)cc(C(F)(F)F)c2)nc1-c1ccc(Cl)c(Cl)c1 [I-213]	≥ 6.00
CC(C)Cc1sc(Nc2ccc(-c3ccccc3)c(C(=O)O)c2)nc1-c1ccc(Cl)c(Cl)c1 [I-216]	≥ 6.00
CC(C)Cc1sc(Nc2cccc(C(=O)NCCN)c2)nc1-c1ccc(Cl)c(Cl)c1 [I-218, N-(2-aminoethyl)-3-(4-(3,4-dichlorophenyl)-5-isobutylthiazol-2-ylamino)benzamide]	< 5.00
CC(C)Cc1sc(Nc2cccc(C(=O)O)n2)nc1-c1ccc(Cl)c(Cl)c1 [I-219]	5.00 to 6.00
CC(C)Cc1sc(Nc2cncc(C(=O)O)c2)nc1-c1ccc(Cl)c(Cl)c1 [I-221, 5-(4-(3,4-dichlorophenyl)-5-isobutylthiazol-2-ylamino)nicotinic acid]	5.00 to 6.00
CC(C)Cc1sc(Nc2cc(C(=O)O)ccn2)nc1-c1ccc(Cl)c(Cl)c1 [I-222]	5.00 to 6.00
CC(C)Cc1sc(-c2ccc(Br)c(C(=O)O)c2)nc1-c1ccc(Cl)c(Cl)c1 [I-224, 2-bromo-5-(4-(3,4-dichlorophenyl)-5-isobutylthiazol-2-yl)benzoic acid]	5.00 to 6.00
CC(C)Cc1sc(-c2ccc(-c3ccccc3)c(C(=O)O)c2)nc1-c1ccc(Cl)c(Cl)c1 [I-225]	≥ 6.00
CC(C)Cc1sc(-c2ccc(C(F)(F)F)c(C(=O)O)c2)nc1-c1ccc(Cl)c(Cl)c1 [I-227]	5.00 to 6.00
CC(C)Cc1sc(-c2cccc(C(=O)O)n2)nc1-c1ccc(Cl)c(Cl)c1 [I-228, 6-(4-(3,4-dichlorophenyl)-5-isobutylthiazol-2-yl)picolinic acid]	5.00 to 6.00
CC(C)Cc1sc(N(CC(=N)N)Cc2ccccc2)nc1-c1ccc(Cl)c(Cl)c1 [I-231, 2-(benzyl(4-(3,4-dichlorophenyl)-5-isobutylthiazol-2-yl)amino)acetimidamide]	< 5.00
CC(C)Cc1sc(N(CCNC(=N)N)Cc2ccccc2)nc1-c1ccc(Cl)c(Cl)c1 [I-232, 2-(2-(benzyl(4-(3,4-dichlorophenyl)-5-isobutylthiazol-2-yl)amino)ethyl)guanidine]	5.00 to 6.00
CC(C)Cc1sc(Nc2cccnc2C(=O)O)nc1-c1ccc(Cl)c(Cl)c1 [I-234, 3-(4-(3,4-dichlorophenyl)-5-isobutylthiazol-2-ylamino)picolinic acid]	5.00 to 6.00
CC(C)Cc1sc(Nc2ccc(-c3ccccc3)cc2C(=O)O)nc1-c1ccc(Cl)c(Cl)c1 [I-235]	≥ 6.00
CC(C)Cc1sc(Nc2cccc(C(F)(F)F)c2C(=O)O)nc1-c1ccc(Cl)c(Cl)c1 [I-236]	≥ 6.00
CC(C)Cc1sc(-c2cc(C(=O)O)ccn2)nc1-c1ccc(Cl)c(Cl)c1 [I-238]	5.00 to 6.00
CC(C)Cc1sc(Nc2nnccc2C(=O)O)nc1-c1ccc(Cl)c(Cl)c1 [I-239]	5.00 to 6.00
CC(C)Cc1sc(Nc2nccc(Cl)c2C(=O)O)nc1-c1ccc(Cl)c(Cl)c1 [I-242]	≥ 6.00
COc1ccnc(Nc2nc(-c3ccc(Cl)c(Cl)c3)c(CC(C)C)s2)c1C(=O)O [I-243]	≥ 6.00
CCOC(=O)N1CCN(c2nc(-c3ccc(Cl)c(Cl)c3)c(CC(C)C)s2)CC1C(=O)O (centres unmarked) [I-245, 4-(4-(3,4-dichlorophenyl)-5-isobutylthiazol-2-yl)-1-(ethoxycarbonyl)piperazine-2-carboxylic acid]	5.00 to 6.00
CC(C)Cc1sc(N2CCN(C(=O)c3ccccc3)C(C(=O)O)C2)nc1-c1ccc(Cl)c(Cl)c1 (centres unmarked) [I-246, 1-benzoyl-4-(4-(3,4-dichlorophenyl)-5-isobutylthiazol-2-yl)piperazine-2-carboxylic acid]	5.00 to 6.00
CC(C)Cc1sc(N2CCN(C(=O)c3cccs3)C(C(=O)O)C2)nc1-c1ccc(Cl)c(Cl)c1 (centres unmarked) [I-248]	≥ 6.00
CC(C)Cc1sc(N2CCN(C(=O)c3cccnc3)C(C(=O)O)C2)nc1-c1ccc(Cl)c(Cl)c1 (centres unmarked) [I-250]	5.00 to 6.00
CC(C)Cc1sc(N2CCN(C(=O)Nc3ccccc3)C(C(=O)O)C2)nc1-c1ccc(Cl)c(Cl)c1 (centres unmarked) [I-252]	≥ 6.00
CC(C)Cc1sc(Nc2ccsc2C(=O)O)nc1-c1ccc(Cl)c(Cl)c1 [I-256]	≥ 6.00

Other lines, results leading:

pIC50	Structure (SMILES)
< 5.00	CC(C)Cc1sc(NCc2cccc(O)n2)nc1-c1ccc(Cl)c(Cl)c1 [I-201, 6-((4-(3,4-dichlorophenyl)-5-isobutylthiazol-2-ylamino)methyl)pyridin-2-ol]
5.00 to 6.00	CC(C)Cc1sc(-c2cccc(C(=O)O)c2)nc1-c1ccc(Cl)c(Cl)c1 [I-203, 3-(4-(3,4-dichlorophenyl)-5-isobutylthiazol-2-yl)benzoic acid]
< 5.00	CC(C)Cc1sc(N(CCC(=O)O)Cc2cccc(C(=O)NCCN)c2)nc1-c1ccc(Cl)c(Cl)c1 [I-205, 3-((3-(2-aminoethylcarbamoyl)benzyl)(4-(3,4-dichlorophenyl)-5-isobutylthiazol-2-yl)amino)propanoic acid]
5.00 to 6.00	CC(C)Cc1sc(Nc2ccc(O)c(C(=O)O)c2)nc1-c1ccc(Cl)c(Cl)c1 [I-207, 5-(4-(3,4-dichlorophenyl)-5-isobutylthiazol-2-ylamino)-2-hydroxybenzoic acid]
≥ 6.00	CC(C)Cc1sc(Nc2ccc(Cl)c(C(=O)O)c2)nc1-c1ccc(Cl)c(Cl)c1 [I-208]
≥ 6.00	CC(C)Cc1sc(Nc2ccc(F)c(C(=O)O)c2)nc1-c1ccc(Cl)c(Cl)c1 [I-209]
< 5.00	CC(C)Cc1sc(Nc2ccc(N3CCOCC3)c(C(=O)O)c2)nc1-c1ccc(Cl)c(Cl)c1 [I-211]
5.00 to 6.00	Cc1cc(Nc2nc(-c3ccc(Cl)c(Cl)c3)c(CC(C)C)s2)cc(C(=O)O)c1 [I-214]
≥ 6.00	CC(C)Cc1sc(Nc2cc(C(=O)O)cc(-c3ccccc3)c2)nc1-c1ccc(Cl)c(Cl)c1 [I-215, 5-(4-(3,4-dichlorophenyl)-5-isobutylthiazol-2-ylamino)biphenyl-3-carboxylic acid]
≥ 6.00	CC(C)Cc1sc(Nc2cc(NC(=O)c3ccccc3)cc(C(=O)O)c2)nc1-c1ccc(Cl)c(Cl)c1 [I-217]
5.00 to 6.00	CC(C)Cc1sc(Nc2ccnc(C(=O)O)c2)nc1-c1ccc(Cl)c(Cl)c1 [I-220]
5.00 to 6.00	O=C(O)c1cccc(-c2nc(Cc3ccc(Cl)c(Cl)c3)cs2)c1 [I-223, 3-(4-(3,4-dichlorobenzyl)thiazol-2-yl)benzoic acid]
≥ 6.00	CC(C)Cc1sc(-c2ccc(-c3cccnc3)c(C(=O)O)c2)nc1-c1ccc(Cl)c(Cl)c1 [I-226]
≥ 6.00	CC(C)Cc1sc(-c2ccc(C(=O)O)s2)nc1-c1ccc(Cl)c(Cl)c1 [I-229]
< 5.00	CC(C)Cc1sc(N(CCC(=N)N)Cc2ccccc2)nc1-c1ccc(Cl)c(Cl)c1 [I-230, 3-(benzyl(4-(3,4-dichlorophenyl)-5-isobutylthiazol-2-yl)amino)propanimidamide]
≥ 6.00	CC(C)Cc1sc(Nc2ncccc2C(=O)O)nc1-c1ccc(Cl)c(Cl)c1 [I-233]
5.00 to 6.00	CC(C)Cc1sc(-c2cc(C(=O)O)c(F)cn2)nc1-c1ccc(Cl)c(Cl)c1 [I-240]
≥ 6.00	CC(C)Cc1sc(Nc2nccc(-c3ccccc3)c2C(=O)O)nc1-c1ccc(Cl)c(Cl)c1 [I-241]
≥ 6.00	CC(C)Cc1sc(N2CCN(C(=O)OCc3ccccc3)C(C(=O)O)C2)nc1-c1ccc(Cl)c(Cl)c1 (centres unmarked) [I-244, 1-(benzyloxycarbonyl)-4-(4-(3,4-dichlorophenyl)-5-isobutylthiazol-2-yl)piperazine-2-carboxylic acid]
5.00 to 6.00	CC(C)Cc1sc(N2CCN(C(=O)c3ncccn3)C(C(=O)O)C2)nc1-c1ccc(Cl)c(Cl)c1 (centres unmarked) [I-249]
5.00 to 6.00	CNC(=O)N1CCN(c2nc(-c3ccc(Cl)c(Cl)c3)c(CC(C)C)s2)CC1C(=O)O (centres unmarked) [I-251, 4-(4-(3,4-dichlorophenyl)-5-isobutylthiazol-2-yl)-1-(methylcarbamoyl)piperazine-2-carboxylic acid]
5.00 to 6.00	CC(C)Cc1sc(N2CCN(C(=O)OC(C)C)C(C(=O)O)C2)nc1-c1ccc(Cl)c(Cl)c1 (centres unmarked) [I-253, 4-(4-(3,4-dichlorophenyl)-5-isobutylthiazol-2-yl)-1-(isopropoxycarbonyl)piperazine-2-carboxylic acid]
5.00 to 6.00	CC(C)Cc1sc(Nc2ccncc2C(=O)O)nc1-c1ccc(Cl)c(Cl)c1 [I-254]
5.00 to 6.00	CC(C)Cc1sc(Nc2cc(C(=O)O)ccc2-c2ccccc2)nc1-c1ccc(Cl)c(Cl)c1 [I-255]
≥ 6.00	Cn1nnnc1-c1sc(Nc2ncccc2C(=O)O)nc1-c1ccc(Cl)c(Cl)c1 [I-257, 2-(4-(3,4-dichlorophenyl)-5-(1-methyl-1H-tetrazol-5-yl)thiazol-2-ylamino)nicotinic acid]
≥ 6.00	CC(C)c1sc(Nc2ncccc2C(=O)O)nc1-c1ccc(Cl)c(Cl)c1 [I-258]
≥ 6.00	CC(C)c1sc(Nc2ncc(-c3ccccc3)cc2C(=O)O)nc1-c1ccc(Cl)c(Cl)c1 [I-259, 2-(4-(3,4-dichlorophenyl)-5-isopropylthiazol-2-ylamino)-5-phenylnicotinic acid]
≥ 6.00	CC(C)c1sc(Nc2ncc(-c3cccs3)cc2C(=O)O)nc1-c1ccc(Cl)c(Cl)c1 [I-260]
≥ 6.00	CC(C)c1sc(Nc2ncccc2C(=O)O)nc1-c1ccc(Cl)c(C(F)(F)F)c1 [I-261]
